# Assay results from patent US20050069531A1, “Use of hyaluronidase in the manufacture of an ophthalmic preparation for liquefying vitreous humor in the treatment of eye disorders” (priority 1995, published 2005).
# Read-outs that look alike come from different tables or passages of the source.
# Tested on: eyes of rabbits
# Conditions: rabbit, intravitreal
# Text: Fifty-two (52) healthy rabbits of the New Zealand Cross Variety (26 male, 26 female) weighing 1.5 kg to 2.5 kg, were individually marked for identification and were housed individually in suspended cages. The animals received a commercially available pelleted rabbit feed on a daily basis, with tap water available ad libitum.
# The animals were divided into thirteen groups of 4 animals each (2 male, 2 female). Two animals in each group (1 male, 1 female) were selected for pretreatment fundus photography and fluorescein angiography.
# The fundus photography was performed by restraining the animals and visualizing the optic nerve, retinal arcades with fundus with a KOWA® RC-3 Fundus Camera loaded with Kodak Gold 200 ASA film.
# The fluorescein angiography involved a 1.5 ml injection of 2% sterile fluorescein solution via the marginal ear vein. Approximately 30 seconds post-injection the fluorescein was visualized upon localization of the optic nerve, retinal vessels and fundus.
# The following day, each animal was anesthetized by intravenous administration of a combination of 34 mg/kg of ketamine hydrochloride and 5 mg/kg xylazine. The eyelids were retracted using a lid speculum, and the eyes were disinfected with an iodine-providone wash.
# The experimental treatments administered to each animal group were as follows:
# The day following the injections (Day 1), the 26 animals which were subjected to the fundus photography and fluorescein angiography were observed using the same methods as for the pre-dose examination.
# The eyes were then surgically removed and placed in a fixture solution of 2.5% glutaraldehyde with 0.1 M phosphate buffered saline at pH 7.37.
# Alternatively, one randomly selected rabbit was euthanized by pentobarbital injection but then fixed by intracardiac injection of the glutaraldehyde solution into the left ventricle to determine the effect of the fixation procedure on the histology findings within the enucleated eyes.
# On Day 7, the 13 female rabbits that had been previously photographed and angiography performed were subjected to the same observations following the methods previously described.
# The remaining 26 animals were euthanized as described above 7 days after dosing. The eyes were fixed in the same manner as those which had been fixed on day 2. Also, one randomly selected rabbit was subjected to the same intracardiac glutaraldehyde fixation procedure described hereabove for the previously randomly selected animal.
# The eyes of the animals treated in this example were examined grossly and microscopically for evidence of treatment-related toxicities.
substance,measurement,setting,value
thimerosal [BSS+thimerosal],evidence of treatment-related toxicity in the eyes (gross and microscopic examination),"0.0075 mg thimerosal in BSS, day 2 post-dose",free of toxicity
same,toxic effects observed on day 7 (FIG. 3),"0.0075 mg thimerosal in BSS, day 7",significant toxic effects
same,evidence of treatment-related toxicity in the eyes (gross and microscopic examination),"0.0075 mg thimerosal in BSS, day 7 post-dose",breakdown of the blood-retinal barrier
same,evidence of treatment-related toxicity in the eyes (gross and microscopic examination),"0.025 mg thimerosal in BSS, days 2 and 7 post-dose",severe treatment-related toxic effects
same,toxic effects in the eyes of rabbits (conclusion),at the dosages tested,do cause toxic effects
